Results taken from ChEMBL document CHEMBL3627608, “Crystal structures of human RIP2 kinase catalytic domain complexed with ATP-competitive inhibitors: Foundations for understanding inhibitor selectivity” (Bioorg Med Chem, 2015).

Experiments:
[1] = biological target: Serine/threonine-protein kinase pim-1 (Homo sapiens) (UniProt P11309); experiment: Inhibition of PIM1 (unknown origin) at 10 uM after 120 mins P33 radiolabeled kinase activity assay
[2] = biological target: Serine/threonine-protein kinase PLK3 (Homo sapiens) (UniProt Q9H4B4); experiment: Inhibition of PLK3 (unknown origin) at 10 uM after 120 mins P33 radiolabeled kinase activity assay
[3] = biological target: Serine/threonine-protein kinase MARK2 (Homo sapiens) (UniProt Q7KZI7); experiment: Inhibition of MARK2 (unknown origin) at 10 uM after 120 mins P33 radiolabeled kinase activity assay
[4] = biological target: Serine/threonine-protein kinase SIK3 (Homo sapiens) (UniProt Q9Y2K2); experiment: Inhibition of SIK3 (unknown origin) at 10 uM after 120 mins P33 radiolabeled kinase activity assay
[5] = biological target: NT-3 growth factor receptor (Homo sapiens) (UniProt Q16288); experiment: Inhibition of TRKC (unknown origin) at 10 uM after 120 mins P33 radiolabeled kinase activity assay
[6] = biological target: T1, Serine/threonine-protein kinase A-Raf (Homo sapiens) (UniProt P10398); experiment: Inhibition of ARAF (unknown origin) at 10 uM after 120 mins P33 radiolabeled kinase activity assay
T1 sequence (whole entry): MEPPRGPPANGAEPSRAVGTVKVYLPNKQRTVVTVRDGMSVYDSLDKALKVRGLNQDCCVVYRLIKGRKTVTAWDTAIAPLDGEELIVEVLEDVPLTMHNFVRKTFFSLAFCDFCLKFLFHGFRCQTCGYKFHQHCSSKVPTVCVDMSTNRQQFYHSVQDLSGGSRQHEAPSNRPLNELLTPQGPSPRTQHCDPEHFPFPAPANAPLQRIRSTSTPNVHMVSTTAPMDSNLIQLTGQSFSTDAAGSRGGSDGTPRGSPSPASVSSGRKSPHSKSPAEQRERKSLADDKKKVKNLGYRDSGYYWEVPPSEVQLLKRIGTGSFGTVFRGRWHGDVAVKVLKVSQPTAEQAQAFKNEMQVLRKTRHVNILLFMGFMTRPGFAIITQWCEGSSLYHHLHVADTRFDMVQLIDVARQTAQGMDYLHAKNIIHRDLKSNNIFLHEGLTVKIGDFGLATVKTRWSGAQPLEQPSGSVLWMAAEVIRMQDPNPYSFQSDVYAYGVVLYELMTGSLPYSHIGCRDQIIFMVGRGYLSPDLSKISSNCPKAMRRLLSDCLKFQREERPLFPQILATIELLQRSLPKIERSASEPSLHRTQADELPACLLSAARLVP

[7] = biological target: T2, NUAK family SNF1-like kinase 1 (Homo sapiens) (UniProt O60285); experiment: Inhibition of ARK5 (unknown origin) at 10 uM after 120 mins P33 radiolabeled kinase activity assay
T2 sequence (whole entry): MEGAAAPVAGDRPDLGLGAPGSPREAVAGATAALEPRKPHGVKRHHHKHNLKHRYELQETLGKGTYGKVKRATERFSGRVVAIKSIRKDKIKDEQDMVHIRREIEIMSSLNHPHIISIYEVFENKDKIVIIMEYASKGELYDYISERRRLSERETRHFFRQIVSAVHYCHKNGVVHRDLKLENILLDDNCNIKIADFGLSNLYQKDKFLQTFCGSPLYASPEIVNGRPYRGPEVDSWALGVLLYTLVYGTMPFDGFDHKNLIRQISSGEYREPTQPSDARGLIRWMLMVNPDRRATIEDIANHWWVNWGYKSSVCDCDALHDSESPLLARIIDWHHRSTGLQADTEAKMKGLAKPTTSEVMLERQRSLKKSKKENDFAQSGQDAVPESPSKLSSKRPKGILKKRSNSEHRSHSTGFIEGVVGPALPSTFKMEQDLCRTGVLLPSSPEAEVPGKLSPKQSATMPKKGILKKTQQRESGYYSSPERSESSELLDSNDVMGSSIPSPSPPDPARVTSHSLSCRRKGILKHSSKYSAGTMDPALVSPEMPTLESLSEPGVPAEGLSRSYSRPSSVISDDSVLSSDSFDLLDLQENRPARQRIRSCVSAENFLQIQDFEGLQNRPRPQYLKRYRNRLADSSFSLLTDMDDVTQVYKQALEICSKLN

[8] = biological target: T3, Aurora kinase A (Homo sapiens) (UniProt O14965); experiment: Inhibition of Aurora A (unknown origin) at 10 uM after 120 mins P33 radiolabeled kinase activity assay
T3 sequence (whole entry): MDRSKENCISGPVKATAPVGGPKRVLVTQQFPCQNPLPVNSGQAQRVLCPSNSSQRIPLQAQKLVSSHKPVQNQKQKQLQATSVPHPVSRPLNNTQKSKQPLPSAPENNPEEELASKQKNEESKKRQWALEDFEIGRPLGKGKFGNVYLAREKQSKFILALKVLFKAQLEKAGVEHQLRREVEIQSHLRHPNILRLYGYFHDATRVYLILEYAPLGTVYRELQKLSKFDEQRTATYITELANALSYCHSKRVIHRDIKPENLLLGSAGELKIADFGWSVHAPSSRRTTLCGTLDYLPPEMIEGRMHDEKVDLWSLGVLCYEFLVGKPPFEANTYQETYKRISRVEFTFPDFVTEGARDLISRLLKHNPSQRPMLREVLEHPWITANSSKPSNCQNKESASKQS

[9] = biological target: Cell division cycle 7-related protein kinase (Homo sapiens) (UniProt O00311); experiment: Inhibition of CDC7 (unknown origin) at 10 uM after 120 mins P33 radiolabeled kinase activity assay
[10] = biological target: Cyclin-dependent kinase 5/CDK5 activator 1 (Homo sapiens) (UniProt Q00535+Q15078); experiment: Inhibition of CDK5/p35 (unknown origin) at 10 uM after 120 mins P33 radiolabeled kinase activity assay; format: protein-complex assay
Cyclin-dependent kinase 5/CDK5 activator 1 (Homo sapiens), sequence (Q00535 whole entry): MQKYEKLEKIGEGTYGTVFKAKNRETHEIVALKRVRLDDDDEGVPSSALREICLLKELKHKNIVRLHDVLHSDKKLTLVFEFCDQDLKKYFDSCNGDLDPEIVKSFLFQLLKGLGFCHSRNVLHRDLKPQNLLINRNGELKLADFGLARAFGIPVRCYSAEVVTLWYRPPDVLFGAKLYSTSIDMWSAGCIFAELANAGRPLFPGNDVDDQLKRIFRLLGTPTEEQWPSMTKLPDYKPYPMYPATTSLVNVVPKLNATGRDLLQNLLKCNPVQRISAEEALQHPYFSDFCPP
Cyclin-dependent kinase 5/CDK5 activator 1 (Homo sapiens), sequence (Q15078 99-307 partner limits assumed): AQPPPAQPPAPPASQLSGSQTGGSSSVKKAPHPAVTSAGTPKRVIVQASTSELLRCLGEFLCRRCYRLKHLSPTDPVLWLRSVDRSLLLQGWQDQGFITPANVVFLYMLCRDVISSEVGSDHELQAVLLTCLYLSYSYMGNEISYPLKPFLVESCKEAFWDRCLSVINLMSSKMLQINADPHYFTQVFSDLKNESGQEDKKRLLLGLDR

Cell division cycle 7-related protein kinase (Homo sapiens), sequence (O00311 whole entry, looked up): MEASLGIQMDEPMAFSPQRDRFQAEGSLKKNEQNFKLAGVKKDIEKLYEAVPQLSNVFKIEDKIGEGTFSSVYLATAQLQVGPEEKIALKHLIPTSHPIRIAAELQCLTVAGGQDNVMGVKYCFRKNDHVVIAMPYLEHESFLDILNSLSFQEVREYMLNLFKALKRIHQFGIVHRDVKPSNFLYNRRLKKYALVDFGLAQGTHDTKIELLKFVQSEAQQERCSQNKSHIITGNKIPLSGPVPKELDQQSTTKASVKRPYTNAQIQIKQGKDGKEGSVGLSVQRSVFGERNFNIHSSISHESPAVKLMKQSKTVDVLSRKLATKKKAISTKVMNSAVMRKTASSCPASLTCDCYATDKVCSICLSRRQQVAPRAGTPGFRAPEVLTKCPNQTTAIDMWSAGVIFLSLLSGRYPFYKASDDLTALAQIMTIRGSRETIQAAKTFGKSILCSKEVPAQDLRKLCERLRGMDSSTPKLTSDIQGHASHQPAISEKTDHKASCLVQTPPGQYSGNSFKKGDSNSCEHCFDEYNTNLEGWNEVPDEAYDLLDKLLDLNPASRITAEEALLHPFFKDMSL
Serine/threonine-protein kinase pim-1 (Homo sapiens), sequence (P11309 whole entry, looked up): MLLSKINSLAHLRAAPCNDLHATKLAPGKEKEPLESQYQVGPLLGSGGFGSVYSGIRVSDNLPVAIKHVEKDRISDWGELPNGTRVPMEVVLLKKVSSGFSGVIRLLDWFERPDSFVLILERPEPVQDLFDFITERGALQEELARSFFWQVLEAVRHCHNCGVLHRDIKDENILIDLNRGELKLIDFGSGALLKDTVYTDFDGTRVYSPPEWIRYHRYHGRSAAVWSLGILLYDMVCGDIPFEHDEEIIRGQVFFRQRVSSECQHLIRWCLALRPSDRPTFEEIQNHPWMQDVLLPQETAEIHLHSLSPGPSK
Serine/threonine-protein kinase MARK2 (Homo sapiens), sequence (Q7KZI7 whole entry): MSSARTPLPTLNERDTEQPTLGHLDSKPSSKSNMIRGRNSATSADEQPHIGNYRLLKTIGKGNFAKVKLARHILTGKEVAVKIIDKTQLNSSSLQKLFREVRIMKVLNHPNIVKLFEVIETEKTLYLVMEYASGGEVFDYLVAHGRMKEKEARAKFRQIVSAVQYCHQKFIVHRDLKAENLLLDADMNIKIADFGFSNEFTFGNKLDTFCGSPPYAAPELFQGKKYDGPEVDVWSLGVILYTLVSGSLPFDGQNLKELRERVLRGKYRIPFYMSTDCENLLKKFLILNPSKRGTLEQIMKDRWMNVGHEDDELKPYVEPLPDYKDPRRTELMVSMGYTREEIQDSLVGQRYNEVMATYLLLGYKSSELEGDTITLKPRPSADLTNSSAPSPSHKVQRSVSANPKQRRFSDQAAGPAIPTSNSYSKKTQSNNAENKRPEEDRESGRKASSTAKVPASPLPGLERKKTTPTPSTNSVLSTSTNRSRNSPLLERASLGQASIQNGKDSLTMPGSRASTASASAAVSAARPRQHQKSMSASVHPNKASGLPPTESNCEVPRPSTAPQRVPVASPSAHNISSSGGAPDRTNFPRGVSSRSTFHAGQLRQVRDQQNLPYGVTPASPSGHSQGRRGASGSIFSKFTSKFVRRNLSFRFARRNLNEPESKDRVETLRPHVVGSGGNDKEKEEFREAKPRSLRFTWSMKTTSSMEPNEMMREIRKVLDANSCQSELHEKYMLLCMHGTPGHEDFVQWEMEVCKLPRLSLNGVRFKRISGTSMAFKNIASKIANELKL
NT-3 growth factor receptor (Homo sapiens), sequence (Q16288 32-839 limits assumed): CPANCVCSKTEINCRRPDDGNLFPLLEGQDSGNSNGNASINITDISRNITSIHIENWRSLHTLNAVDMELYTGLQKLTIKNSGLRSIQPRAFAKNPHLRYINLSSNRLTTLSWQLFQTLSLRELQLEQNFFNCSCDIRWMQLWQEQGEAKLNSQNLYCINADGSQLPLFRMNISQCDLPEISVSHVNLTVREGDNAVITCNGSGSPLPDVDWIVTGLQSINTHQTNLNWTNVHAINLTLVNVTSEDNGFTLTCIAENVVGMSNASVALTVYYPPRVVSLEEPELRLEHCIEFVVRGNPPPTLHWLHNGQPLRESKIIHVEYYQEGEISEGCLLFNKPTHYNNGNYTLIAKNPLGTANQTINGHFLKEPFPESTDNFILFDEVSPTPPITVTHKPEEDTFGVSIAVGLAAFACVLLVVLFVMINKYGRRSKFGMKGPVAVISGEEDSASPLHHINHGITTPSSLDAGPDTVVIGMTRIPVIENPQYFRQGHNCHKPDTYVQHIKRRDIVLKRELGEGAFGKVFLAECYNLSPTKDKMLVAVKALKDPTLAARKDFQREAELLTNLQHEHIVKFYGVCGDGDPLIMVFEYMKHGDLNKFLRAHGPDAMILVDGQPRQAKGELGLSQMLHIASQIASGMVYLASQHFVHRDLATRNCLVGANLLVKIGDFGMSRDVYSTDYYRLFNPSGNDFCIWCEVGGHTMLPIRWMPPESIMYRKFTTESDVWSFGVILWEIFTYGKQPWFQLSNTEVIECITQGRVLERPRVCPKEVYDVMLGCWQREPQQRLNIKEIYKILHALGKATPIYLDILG
Serine/threonine-protein kinase SIK3 (Homo sapiens), sequence (Q9Y2K2 whole entry, looked up): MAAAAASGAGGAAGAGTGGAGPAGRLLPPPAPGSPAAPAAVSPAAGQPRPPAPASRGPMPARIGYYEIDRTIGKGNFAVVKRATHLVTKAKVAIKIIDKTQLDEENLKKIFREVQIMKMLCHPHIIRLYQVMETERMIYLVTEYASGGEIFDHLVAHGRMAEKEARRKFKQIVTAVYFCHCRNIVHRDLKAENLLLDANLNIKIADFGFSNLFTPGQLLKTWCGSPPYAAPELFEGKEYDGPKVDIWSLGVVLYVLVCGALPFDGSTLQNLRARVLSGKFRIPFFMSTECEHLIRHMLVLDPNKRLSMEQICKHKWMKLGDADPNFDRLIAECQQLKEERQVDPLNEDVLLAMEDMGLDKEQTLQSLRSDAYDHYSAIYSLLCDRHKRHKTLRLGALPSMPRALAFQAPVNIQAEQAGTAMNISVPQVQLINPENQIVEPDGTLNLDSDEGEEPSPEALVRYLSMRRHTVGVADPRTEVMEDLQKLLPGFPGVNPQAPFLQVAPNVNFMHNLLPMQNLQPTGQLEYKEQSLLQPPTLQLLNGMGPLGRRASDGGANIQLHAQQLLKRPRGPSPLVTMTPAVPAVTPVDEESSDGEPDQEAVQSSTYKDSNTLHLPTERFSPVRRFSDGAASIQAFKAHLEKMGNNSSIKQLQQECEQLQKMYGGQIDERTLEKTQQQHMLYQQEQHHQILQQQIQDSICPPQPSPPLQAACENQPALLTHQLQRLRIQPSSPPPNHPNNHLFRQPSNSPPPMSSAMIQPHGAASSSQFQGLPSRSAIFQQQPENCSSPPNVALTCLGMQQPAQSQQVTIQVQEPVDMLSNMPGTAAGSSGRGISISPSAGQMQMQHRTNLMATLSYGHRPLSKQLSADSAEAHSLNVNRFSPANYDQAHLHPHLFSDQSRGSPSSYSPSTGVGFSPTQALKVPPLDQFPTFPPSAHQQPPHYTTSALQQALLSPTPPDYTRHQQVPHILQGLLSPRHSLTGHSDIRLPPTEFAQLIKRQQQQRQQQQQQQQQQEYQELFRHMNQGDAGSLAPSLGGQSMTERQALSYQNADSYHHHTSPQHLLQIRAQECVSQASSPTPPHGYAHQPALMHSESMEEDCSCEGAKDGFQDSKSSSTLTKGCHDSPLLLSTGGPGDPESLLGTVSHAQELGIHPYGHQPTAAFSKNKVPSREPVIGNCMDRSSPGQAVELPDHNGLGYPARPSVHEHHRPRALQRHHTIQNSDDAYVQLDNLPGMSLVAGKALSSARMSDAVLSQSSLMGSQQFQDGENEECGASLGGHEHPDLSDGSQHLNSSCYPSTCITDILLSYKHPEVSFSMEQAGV
Serine/threonine-protein kinase PLK3 (Homo sapiens), sequence (Q9H4B4 whole entry, looked up): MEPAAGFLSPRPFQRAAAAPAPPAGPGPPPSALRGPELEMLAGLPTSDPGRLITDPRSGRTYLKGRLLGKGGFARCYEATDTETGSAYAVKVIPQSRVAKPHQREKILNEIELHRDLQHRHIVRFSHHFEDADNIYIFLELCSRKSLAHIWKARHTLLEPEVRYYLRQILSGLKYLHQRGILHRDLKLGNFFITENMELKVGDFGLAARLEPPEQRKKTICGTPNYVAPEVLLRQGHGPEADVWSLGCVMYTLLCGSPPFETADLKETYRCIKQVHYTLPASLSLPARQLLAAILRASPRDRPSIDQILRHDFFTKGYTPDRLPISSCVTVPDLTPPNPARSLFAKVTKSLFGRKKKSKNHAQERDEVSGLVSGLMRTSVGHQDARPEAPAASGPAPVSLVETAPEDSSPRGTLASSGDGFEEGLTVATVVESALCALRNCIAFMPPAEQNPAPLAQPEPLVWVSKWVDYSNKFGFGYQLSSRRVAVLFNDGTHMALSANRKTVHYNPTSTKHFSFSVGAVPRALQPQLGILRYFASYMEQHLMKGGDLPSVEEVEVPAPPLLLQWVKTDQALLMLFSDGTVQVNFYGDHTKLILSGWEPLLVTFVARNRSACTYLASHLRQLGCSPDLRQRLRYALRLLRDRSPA

SMILES | inhibition [1] [%] | inhibition [2] [%] | inhibition [3] [%] | inhibition [4] [%] | inhibition [5] [%] | inhibition [6] [%] | inhibition [7] [%] | inhibition [8] [%] | inhibition [9] [%] | inhibition [10] [%]
CS(=O)(=O)c1cccc(Nc2nccc(-c3sc(N4CCOCC4)nc3-c3cccc(NS(=O)(=O)c4c(F)cccc4F)c3)n2)c1 | 10.6 | 3.68 | 10.9 | 99.6 | 84.8 | 97.7 | 41.1 | 83.4 | 9.73 | 94.7
COCCNC(=O)c1ccc2c(c1)nc(-c1cnc(-c3ccc(Cl)cc3)[nH]1)n2CCOC | 7.46 | 0.99 | 2.7 | 6.53 | 11.8 | 75.8 | 7.6 | 13.9 | 6.05 | 0.14
CC(C)(C)c1cc(NC(=O)Nc2ccc(Oc3ccncc3)cc2)no1 | 64.5 | -1.93 | 3.84 | 9.52 | 99.7 | 96.2 | -0.15 | 48.4 | 5.38 | 57.3
